Key:
[1] = system: Human immunodeficiency virus; assay: Ratio of CC50 required to reduce the viability of mock-infected human CEM cells to EC50 required to inhibit HTLV-III B induced cytopathicity in that cells; format: functional, Human immunodeficiency virus 1, CCRF-CEM
CCRF-CEM = assay: Concentration required to reduce the viability of mock-infected human CEM cells; format: functional
[2] = system: Human immunodeficiency virus; assay: Effective concentration required to inhibit HTLV-III B induced cytopathicity in human CEM cells; format: functional, organism-based; settings: Human immunodeficiency virus 1, CCRF-CEM

| SMILES | Selectivity index [1] | CC50 (CCRF-CEM) [µM] | EC50 [2] [µM] |
| --- | --- | --- | --- |
| CCN(CC)C(=S)N/N=C1\C(=O)N(CN2CC(C)OC(C)C2)c2ccccc21 (stereo not given) | <1 | 13.3 | > 13.3 |
| CCN(CC)C(=S)N/N=C1\C(=O)N(CN2CCN(c3ccc(F)cc3)CC2)c2ccccc21 | <1 | 14.5 | > 14.5 |
| CCN(CC)C(=S)N/N=C1\C(=O)N(CN2CCN(Cc3ccccc3)CC2)c2ccccc21 | 4.12 | 14 | 3.4 |
| CCN(CC)C(=S)N/N=C1\C(=O)N(CN(C)C)c2ccccc21 | <1 | 2.86 | > 2.86 |
| CCN(CC)C(=S)N/N=C1\C(=O)N(CN2CCN(c3ncccn3)CC2)c2ccccc21 | <1 | 12.8 | > 12.8 |
| CCN(CC)C(=S)N/N=C1\C(=O)N(CN2CCN(c3ccc([N+](=O)[O-])cc3)CC2)c2ccccc21 | <1 | 11.9 | > 11.9 |
| CCN(CC)C(=S)N/N=C1\C(=O)N(CN2CCN(c3cc4c(cc3F)c(=O)c(C(=O)O)cn4CC)CC2)c2ccccc21 | 12.02 | 37.5 | 3.12 |
| O=C1Nc2ccc(Cl)cc2[C@@](C#CC2CC2)(C(F)(F)F)O1 [EFAVIRENZ] | >256 | > 200 | 0.78 |
| CCN(CC)C(=S)N/N=C1\C(=O)N(CN2CCN(c3cccc(C(F)(F)F)c3)CC2)c2ccccc21 | 17.14 | 44.9 | 2.62 |
| CCN(CC)C(=S)N/N=C1\C(=O)N(CN(Cc2ccccc2)Cc2ccccc2)c2ccccc21 | <1 | 8.29 | > 8.29 |

— ChEMBL document CHEMBL1142841, “Synthesis and evaluation of anti-HIV activity of isatin beta-thiosemicarbazone derivatives” (Bioorg Med Chem Lett, 2005)
